This is an account of results in PMC7127469 (European Journal of Medicinal Chemistry, 2010).

Holding throughout (format): cell-based
Test [1] deals with influenza A H1N1 subtype. Put plainly: Antiviral assay, inhibition of virus-induced cytopathic effect, MDCK cells. Background: Protection from cytopathic effect is a common read-out in antiviral testing.
In test [2] the test system is influenza A H3N2 subtype. Described as above.
The test system of test [3] is influenza B. The test is described as above.
The subject of test [4] is Vesicular stomatitis virus. Put plainly: microbe, parasite or virus in culture. As to conditions: HeLa.
The test system of test [5] is coxsackie virus B4. Put plainly: microbe, parasite or virus in culture. As to conditions: Enterovirus B, B4, HeLa, coxsackie virus B4, HeLa cells.
For test [6], the system named is herpes simplex virus-1(KOS). Put plainly: microbe, parasite or virus in culture. As to conditions: Human alphaherpesvirus 1, HEL, virus d, HEL cells.
Test [7] has as its system herpes simplex virus-2 (G). Put plainly: microbe, parasite or virus in culture. As to conditions: Human alphaherpesvirus 2, HEL, virus e, HEL cells.
Test [8] has as its system vaccinia virus. Put plainly: microbe, parasite or virus in culture. As to conditions: Orthopoxvirus vaccinia, HEL.
In test [9] the test system is Vesicular stomatitis virus. Put plainly: microbe, parasite or virus in culture. As to conditions: HEL.
In test [10] the test system is para-influenza-3 virus. Put plainly: organism not typed. As to conditions: Vero, virus i, Vero cells.
Test [11] deals with reovirus-1. Put plainly: organism not typed. As to conditions: Vero, virus j, reovirus-1, Vero cells.
The subject of test [12] is coxsakie virus B4. Put plainly: organism not typed. As to conditions: Vero.
In test [13] the test system is punta toro virus. Put plainly: microbe, parasite or virus in culture. As to conditions: Vero, virus m, Vero cells.
For test [14], the system named is sindbis virus. Put plainly: microbe, parasite or virus in culture. As to conditions: Vero, virus k, Vero cells.
Test [15] relates to feline herpes virus. Put plainly: organism not typed. As to conditions: CRFK, virus o, CRFK cells.
Setting [16] is: virus p, influenza A H1N1 subtype, MDCK cells.
Where [17] appears, read: virus q, influenza A H3N2 subtype, MDCK cells.

As to `NC12CC3CC(CC(C3)C1)C2` [Amantidin], the results for the EC50 in test [1] (setting [16]) and in test [2] (setting [17]) were 45 µM and 4 µM, respectively.
On to `CCC(CC)O[C@@H]1C=C(C(=O)O)C[C@H](N)[C@H]1NC(C)=O` [Oseltamivir-carboxylate], for which the EC50 in test [1] (Influenza A virus, H1N1, MDCK) came out at 0.07 µM; in test [2] (Influenza A virus, H3N2, MDCK) it was 1.7 µM; in test [3], 4 µM.
As to `NC(=O)c1ncn([C@@H]2O[C@H](CO)[C@@H](O)[C@H]2O)n1` [Ribavirin], the EC50 is 10 µM in [4]; 30 µM in test [5]; 10 µM in test [6]; 50 µM in [7]; 85 µM in test [8]; above 250 µM in test [9]. The EC50 in test [10] is 95 µM; in test [11], 250 µM; in test [12], above 250 µM; in [13] it was 50 µM; in [1] (Influenza A virus, H1N1, MDCK), 7 µM; in [2] (Influenza A virus, H3N2, MDCK), 9 µM. It took 9 µM to reach a half-maximal effect in test [3] (EC50).
Regarding `CC(N)C12CC3CC(CC(C3)C1)C2` (centres unmarked) [Rimantidin], the results for the EC50 in [1] (setting [16]) and in test [2] (setting [17]) were 20 µM and 0.8 µM, respectively.
Consider `Nc1ncnc2c1ncn2C[C@H](O)CO` [(S)-DHPA], for which the EC50 in [5], in test [10], in test [11], in test [14], in test [12] and in test [13] was above 250 µM each time.
In the case of `Nc1nc(O)c2ncn(COC(CO)CO)c2n1` [Ganciclovir], the EC50 in test [6] was 0.03 µM; in test [7], 0.03 µM; in test [8], above 100 µM; in [9] it was above 100 µM; in test [15] it was 2.6 µM.
On to `O=c1[nH]c(=O)n([C@H]2C[C@H](O)[C@@H](CO)O2)cc1/C=C/Br` [Brivudine], for which the EC50 in [6] was 0.08 µM; in test [7], 50 µM; in test [8], 2 µM; in [9] it was above 250 µM.

Usually EC50 stands for the midpoint of the concentration-response curve. Higher therefore signals a less potent agent.
